Target: T1, recombinant ERO1α (Homo sapiens, UniProt Q96HE7, C104A/C131A/C166A)
T1 construct: made in house
T1 sequence (Q96HE7 22-468 C104A/C131A/C166A): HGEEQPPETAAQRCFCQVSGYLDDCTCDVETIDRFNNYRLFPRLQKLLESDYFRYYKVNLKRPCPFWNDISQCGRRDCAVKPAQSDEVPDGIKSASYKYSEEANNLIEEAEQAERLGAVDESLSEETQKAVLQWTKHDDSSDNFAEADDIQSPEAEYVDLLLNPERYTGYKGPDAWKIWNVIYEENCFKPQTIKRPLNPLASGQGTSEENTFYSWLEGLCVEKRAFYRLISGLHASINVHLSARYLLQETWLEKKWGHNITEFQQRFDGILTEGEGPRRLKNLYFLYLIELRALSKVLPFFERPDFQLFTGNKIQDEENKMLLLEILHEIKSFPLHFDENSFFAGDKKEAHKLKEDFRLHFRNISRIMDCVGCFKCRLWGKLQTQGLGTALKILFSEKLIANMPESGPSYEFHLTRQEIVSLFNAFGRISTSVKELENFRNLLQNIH
Experiment: Surface plasma resonance (Biacore) binding
Conditions: SPR
Procedure: Surface plasma resonance (SPR) was utilized as an orthogonal assay to confirm direct binding between T151742 and ERO1α. For the SPR assay, recombinant ERO1α was crosslinked to a C5 chip and varying concentrations of ligand T151742 were evaluated for detection of changes in refractive index, due to change in mass on the chip when ligand is bound to the protein. […] The relatively high Kd value is in part due to the fast off-rate.
Cell Lines: PC-9 cell line used was obtained from Sigma Aldrich and grown in RPMI 1640 medium with 10% fetal bovine serum and 1% penicillin/streptomycin. HCC4006, U266, MM1.s, and Beas-2B cell lines were obtained from ATCC and cultured in either RPMI 1640 or DMEM with 10% fetal bovine serum and 1% penicillin/streptomycin. […] Plate was then read on the BioTek Cytation 5 at 530/590 nm. […] Plate was then read at 570 nm. Treated wells were all compared to DMSO control wells to calculate percent growth inhibition and the IC50 was calculated using GraphPad (log(inhibitor) vs growth inhibition). […] Images were then quantified using ImageJ. […] Cells were aliquoted at 1 million cells per PCR tube in PBS and heated in Bio-Rad T100 thermal cycler at indicated temperatures (RT, 46° C., 48° C., 50° C., 52° C., 54° C., 56°, 58° C., and 60° C.) for 3 minutes and aggregation temperature was determined by western blot analysis. […]

Structure (SMILES): CN(C)c1ccc(/C=C2\Oc3cc(O)ccc3C2=O)cc1 [Compound T151742]
- off-rate: fast off-rate

— US20250064773A1, “TARGETING ERO1 ALPHA WITH AURONE DERIVATIVES” (West Virginia University Board of Governors on behalf of …, priority 2021, published 2025)
